pIC50: −log10 of the molar value. Active and inactive are the calls of the source. The rule behind the calls is not given here.

For data set [1], the target named is T1, Protein cereblon/Non-receptor tyrosine-protein kinase TYK2 (Homo sapiens, UniProt P29597+Q96SW2). Description: PROTAC activity at CRBN/TYK2 in human Jurkat cells assessed as induction of degradation of TYK2 at 10 nM measured after 10 hrs by Western blot analysis relative to control. It counts as cell-based.
Data set [2] concerns the target T1, Protein cereblon/Non-receptor tyrosine-protein kinase TYK2. Description: PROTAC activity at CRBN/TYK2 in human Jurkat cells assessed as induction of degradation of TYK2 at 100 nM measured after 10 hrs by Western blot analysis relative to control. Format: cell-based.
Data set [3] concerns Jurkat. Kind of data set: Downregulation of JAK2 protein level in human Jurkat cells at 1 to 100 nM measured after 10 hrs by Western blot analysis. Format: functional, cell-based. To be noted: dose 1-100 nM.
The test system of data set [4] is Jurkat. Description: Downregulation of TYK2 protein level in human Jurkat cells at 1 to 100 nM measured after 10 hrs by Western blot analysis. It counts as functional, cell-based. To be noted: dose 1-100 nM.
The test system of data set [5] is Jurkat. Kind of data set: Effect on JAK1 protein level in human Jurkat cells at 30 nM measured after 4 hrs by DIA-Based Proteomic analysis. It counts as functional, cell-based.
The test system of data set [6] is Jurkat. Description: Downregulation of Aiolos level in human Jurkat cells at 30 nM measured after 4 hrs by DIA-Based Proteomic analysis. It counts as functional, cell-based.
Data set [7] deals with T2, Tyrosine-protein kinase JAK3 (Homo sapiens, UniProt P52333).
T2 sequence (P52333 whole entry): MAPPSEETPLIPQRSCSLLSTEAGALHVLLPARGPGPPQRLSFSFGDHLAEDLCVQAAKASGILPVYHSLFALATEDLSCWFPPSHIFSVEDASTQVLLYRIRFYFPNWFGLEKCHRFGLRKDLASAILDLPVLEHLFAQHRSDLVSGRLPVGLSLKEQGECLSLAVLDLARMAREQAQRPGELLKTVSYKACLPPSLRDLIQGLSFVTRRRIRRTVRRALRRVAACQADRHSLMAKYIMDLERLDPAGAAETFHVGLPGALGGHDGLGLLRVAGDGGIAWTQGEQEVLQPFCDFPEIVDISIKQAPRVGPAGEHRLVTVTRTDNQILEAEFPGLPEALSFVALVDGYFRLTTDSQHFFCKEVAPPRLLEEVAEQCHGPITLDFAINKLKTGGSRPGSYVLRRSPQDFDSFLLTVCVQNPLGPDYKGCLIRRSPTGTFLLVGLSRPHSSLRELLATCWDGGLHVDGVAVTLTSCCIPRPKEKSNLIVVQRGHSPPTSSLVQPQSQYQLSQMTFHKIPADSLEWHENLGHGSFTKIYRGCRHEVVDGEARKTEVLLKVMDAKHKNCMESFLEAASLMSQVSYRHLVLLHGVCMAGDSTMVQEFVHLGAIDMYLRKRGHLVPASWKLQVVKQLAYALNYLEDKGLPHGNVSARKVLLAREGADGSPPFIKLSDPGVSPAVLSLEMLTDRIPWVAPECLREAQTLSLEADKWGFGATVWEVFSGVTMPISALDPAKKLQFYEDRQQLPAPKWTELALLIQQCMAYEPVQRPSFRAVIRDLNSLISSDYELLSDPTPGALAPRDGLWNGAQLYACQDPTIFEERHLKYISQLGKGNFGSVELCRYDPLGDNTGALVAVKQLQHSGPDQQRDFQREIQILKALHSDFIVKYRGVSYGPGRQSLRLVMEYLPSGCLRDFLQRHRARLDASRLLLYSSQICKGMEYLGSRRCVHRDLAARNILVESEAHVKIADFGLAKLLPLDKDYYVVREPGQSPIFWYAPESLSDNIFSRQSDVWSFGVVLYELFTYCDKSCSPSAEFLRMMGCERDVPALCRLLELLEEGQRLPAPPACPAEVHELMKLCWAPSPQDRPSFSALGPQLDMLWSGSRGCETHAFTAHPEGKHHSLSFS
Kind of data set: Binding affinity to JAK3 (unknown origin) by ADP-glo kinase assay.

Data set [8] deals with Tyrosine-protein kinase JAK1 (Homo sapiens, UniProt P23458). Description: Displacement of fluorophore-labeled probe from JAK1 JH2 domain (unknown origin) by HTRF assay.
Data set [9] has as its target T1, Protein cereblon/Non-receptor tyrosine-protein kinase TYK2. Kind of data set: PROTAC activity at CRBN/TYK2 in human Jurkat cells assessed as induction of degradation of TYK2 at 10 nM measured after 4 hrs by Western blot analysis. It counts as cell-based.
Data set [10] has the same target. Description: PROTAC activity at CRBN/TYK2 in human Jurkat cells assessed as induction of degradation of TYK2 at 10 nM preincubated with thalidomide for 2 hrs followed by compound addition and measured after 10 hrs by Western blot analysis. It counts as cell-based.
For data set [11] the target is unchanged. Kind of data set: PROTAC activity at CRBN/TYK2 in human Jurkat cells assessed as induction of degradation of TYK2 at 10 nM preincubated with MLN4924 for 2 hrs followed by compound addition and measured after 10 hrs by Western blot analysis. Format: cell-based.
The target is the same in data set [12]. Description: PROTAC activity at CRBN/TYK2 in human Jurkat cells assessed as induction of degradation of TYK2 at 10 nM preincubated with cycloheximide for 2 hrs followed by compound addition and measured after 10 hrs by Western blot analysis. It counts as cell-based.
Data set [13] in a line: Half life in male ICR mouse at 5 mg/kg, ip measured up to 24 hrs by LC-MS/MS analysis. Format: ADME, organism-based. Particulars: in vivo.
Data set [14] in a line: Tmax in male ICR mouse at 5 mg/kg, ip measured up to 24 hrs by LC-MS/MS analysis. Format: ADME, organism-based. Particulars: in vivo.
The nature of data set [15]: Cmax in male ICR mouse at 5 mg/kg, ip measured up to 24 hrs by LC-MS/MS analysis. Format: ADME, organism-based. To be noted: in vivo.
A short description of data set [16]: MRT (0 to t) in male ICR mouse at 5 mg/kg, ip measured up to 24 hrs by LC-MS/MS analysis. It counts as ADME, organism-based. To be noted: in vivo.
Data set [17] can be described thus: MRT (0 to infinity) in male ICR mouse at 5 mg/kg, ip measured up to 24 hrs by LC-MS/MS analysis. To be noted: in vivo. Format: ADME, organism-based.
The subject of data set [18] is Mus musculus. Kind of data set: Anti-inflammatory activity in imiquimod-induced female BALB/c mouse psoriasis model assessed as reduction in inflammatory infiltration at 5 mg/kg, ip administered daily topically for 6 days by H and E staining based analysis. To be noted: time 6.0 day. It counts as functional, organism-based.
Data set [19] is filed under the species Mus musculus. Kind of data set: Anti-inflammatory activity in imiquimod-induced female BALB/c mouse psoriasis model assessed as reduction in TYK2 protein expression by Immunohistochemical analysis. It counts as functional, organism-based.
The species entered for data set [20] is Mus musculus. Kind of data set: Anti-inflammatory activity in imiquimod-induced female BALB/c mouse psoriasis model assessed as reduction in INF-alpha expression in serum by ELISA method. It counts as functional, organism-based.
Data set [21] is filed under the species Mus musculus. Kind of data set: Anti-inflammatory activity in imiquimod-induced female BALB/c mouse psoriasis model assessed as reduction in IL-17 expression in skin by ELISA method. It counts as functional, organism-based.
The test system of data set [22] is Mus musculus. Description: Anti-inflammatory activity in imiquimod-induced female BALB/c mouse psoriasis model assessed as reduction in IL-17 expression in skin at 15 mg/kg, ip administered daily topically for 6 days by ELISA method. It counts as functional, organism-based. To be noted: time 6.0 day.
For data set [23], the system named is Mus musculus. Kind of data set: Anti-inflammatory activity in imiquimod-induced female BALB/c mouse psoriasis model assessed as reduction in IL-23 expression in skin at 15 mg/kg, ip administered daily topically for 6 days by ELISA method. Particulars: time 6.0 day. Format: functional, organism-based.

T1 sequence (P29597 whole entry, looked up): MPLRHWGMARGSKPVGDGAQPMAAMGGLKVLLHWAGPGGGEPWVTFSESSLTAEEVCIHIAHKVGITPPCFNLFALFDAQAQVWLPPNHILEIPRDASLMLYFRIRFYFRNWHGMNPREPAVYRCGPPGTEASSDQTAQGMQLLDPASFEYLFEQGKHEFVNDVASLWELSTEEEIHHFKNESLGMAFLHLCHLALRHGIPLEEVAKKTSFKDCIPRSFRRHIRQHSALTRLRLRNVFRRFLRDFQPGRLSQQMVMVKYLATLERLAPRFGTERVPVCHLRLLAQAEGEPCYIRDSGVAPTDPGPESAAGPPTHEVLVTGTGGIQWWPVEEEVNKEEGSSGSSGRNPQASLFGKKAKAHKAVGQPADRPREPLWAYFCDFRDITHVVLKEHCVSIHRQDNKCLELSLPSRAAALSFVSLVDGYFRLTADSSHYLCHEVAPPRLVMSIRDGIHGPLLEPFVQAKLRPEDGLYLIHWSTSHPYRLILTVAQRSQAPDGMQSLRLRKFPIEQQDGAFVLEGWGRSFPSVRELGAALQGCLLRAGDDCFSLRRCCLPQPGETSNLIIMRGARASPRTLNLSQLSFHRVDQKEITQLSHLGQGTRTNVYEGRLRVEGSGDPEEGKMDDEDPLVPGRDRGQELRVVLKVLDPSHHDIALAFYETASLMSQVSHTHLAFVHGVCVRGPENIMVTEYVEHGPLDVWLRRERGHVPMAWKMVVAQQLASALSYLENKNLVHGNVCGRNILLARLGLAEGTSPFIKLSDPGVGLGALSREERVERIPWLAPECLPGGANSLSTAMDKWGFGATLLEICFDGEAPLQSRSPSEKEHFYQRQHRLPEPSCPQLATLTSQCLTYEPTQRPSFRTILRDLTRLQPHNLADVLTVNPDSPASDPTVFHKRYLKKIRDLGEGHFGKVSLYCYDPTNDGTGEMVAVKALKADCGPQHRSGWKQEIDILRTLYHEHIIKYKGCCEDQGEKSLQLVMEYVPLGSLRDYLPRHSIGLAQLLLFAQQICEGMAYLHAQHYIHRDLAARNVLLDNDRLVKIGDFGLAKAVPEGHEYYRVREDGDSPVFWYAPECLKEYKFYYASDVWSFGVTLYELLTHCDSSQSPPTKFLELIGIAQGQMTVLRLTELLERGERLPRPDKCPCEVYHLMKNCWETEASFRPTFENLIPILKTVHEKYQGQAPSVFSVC
T1 sequence (Q96SW2 whole entry, looked up): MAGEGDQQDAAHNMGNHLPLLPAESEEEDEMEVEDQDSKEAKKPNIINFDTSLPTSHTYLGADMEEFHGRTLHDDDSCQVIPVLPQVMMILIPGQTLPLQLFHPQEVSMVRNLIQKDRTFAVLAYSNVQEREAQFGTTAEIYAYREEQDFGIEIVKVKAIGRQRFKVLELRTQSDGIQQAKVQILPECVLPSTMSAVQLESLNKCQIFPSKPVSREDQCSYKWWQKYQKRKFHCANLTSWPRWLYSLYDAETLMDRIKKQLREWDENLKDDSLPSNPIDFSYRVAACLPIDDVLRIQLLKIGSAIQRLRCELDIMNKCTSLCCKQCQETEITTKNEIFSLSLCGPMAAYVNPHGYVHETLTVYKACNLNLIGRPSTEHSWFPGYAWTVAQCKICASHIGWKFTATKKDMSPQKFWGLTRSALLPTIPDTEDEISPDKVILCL
Sequence of Tyrosine-protein kinase JAK1 (P23458 whole entry, the tested form may be a part): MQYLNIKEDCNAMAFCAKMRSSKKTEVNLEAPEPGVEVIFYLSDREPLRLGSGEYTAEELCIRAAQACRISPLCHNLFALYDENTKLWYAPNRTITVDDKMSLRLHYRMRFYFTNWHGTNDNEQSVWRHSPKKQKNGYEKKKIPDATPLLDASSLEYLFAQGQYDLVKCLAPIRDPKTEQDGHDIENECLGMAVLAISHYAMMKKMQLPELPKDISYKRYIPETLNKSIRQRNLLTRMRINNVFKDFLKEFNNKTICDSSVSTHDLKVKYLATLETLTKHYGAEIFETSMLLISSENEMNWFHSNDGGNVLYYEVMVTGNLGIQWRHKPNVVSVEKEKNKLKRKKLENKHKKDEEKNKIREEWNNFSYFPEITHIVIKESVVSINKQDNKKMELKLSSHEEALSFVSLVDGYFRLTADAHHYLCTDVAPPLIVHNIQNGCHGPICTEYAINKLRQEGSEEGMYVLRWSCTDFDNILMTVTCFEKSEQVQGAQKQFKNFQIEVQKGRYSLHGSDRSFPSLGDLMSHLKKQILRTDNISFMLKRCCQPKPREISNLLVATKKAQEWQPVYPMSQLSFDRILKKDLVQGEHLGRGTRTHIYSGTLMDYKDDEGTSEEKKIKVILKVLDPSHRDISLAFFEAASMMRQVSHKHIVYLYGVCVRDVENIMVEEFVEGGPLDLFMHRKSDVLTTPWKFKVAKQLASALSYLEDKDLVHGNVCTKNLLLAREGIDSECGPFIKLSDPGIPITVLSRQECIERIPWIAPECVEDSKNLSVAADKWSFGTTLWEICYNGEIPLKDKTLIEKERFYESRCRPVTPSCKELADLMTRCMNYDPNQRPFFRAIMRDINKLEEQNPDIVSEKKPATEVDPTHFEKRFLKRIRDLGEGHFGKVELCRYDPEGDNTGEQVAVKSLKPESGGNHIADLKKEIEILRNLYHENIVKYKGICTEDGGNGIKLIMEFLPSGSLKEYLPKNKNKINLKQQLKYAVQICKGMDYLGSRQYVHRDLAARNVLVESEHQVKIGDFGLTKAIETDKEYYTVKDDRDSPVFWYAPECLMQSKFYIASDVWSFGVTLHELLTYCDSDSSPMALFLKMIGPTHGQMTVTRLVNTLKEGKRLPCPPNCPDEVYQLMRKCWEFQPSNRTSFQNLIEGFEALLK

`CNC(=O)c1cnc(Nc2ccc(C(=O)NC3CCC(Nc4ccc5c(c4)C(=O)N(C4CCC(=O)NC4=O)C5=O)CC3)cn2)cc1Nc1cccc(-c2ncc(F)cn2)c1OC` (stereo not drawn): the Activity came to 96% in [1] and 90% in [2]. For the same molecule, the outcome in [3], in data set [4], in data set [9], in [12], in [18] and in [19] was Active. The outcome in [20], in data set [21], in data set [22] and in data set [23] was Active. Moreover, the outcome in [5], in data set [6], in data set [10] and in data set [11] was inactive. Further, the pIC50 in data set [7] was below 5.00; in data set [8], below 7.00. For the same molecule, the half-life in data set [13] was 2.7 h. Further, the time to peak (Tmax) in [14] stood at 0.4 h. The molecule also came in with a Cmax in [15] of 1300 ng/mL. The MRT last at 24 h in data set [16] was 4.1 h. The MRT inf in [17] turned out to be 4.2 h.

These data come from ChEMBL document CHEMBL6109122 (J Med Chem, 2025).
